In patent publication US20200062738A1, “ANTI-CANCER STEMNESS DRUGS” (Development Center for Biotechnology, priority 2017, published 2020):

Experiments:
H1975-luc cells [1] = experiment: Orthotopic H1975-luc model, treatment starting 2 days after tumor implantation (FIG. 4); assay type: in vivo, mice; settings: for tumor-free rate: 3 mpk IV, 5 times/week
Excerpt: (§1) Mice were orthotopically implanted with H1975-luc cells (10^6 cells/mouse). On day 0 (defined as 2 days after tumor implantation), mice were given drug treatments for 4 weeks (5 times/week), and the tumor formations were followed by non-invasive imaging on days 14 and 28.
(§2) The mouse cancer models were generated as described above. Orthotopic H1975-Luc model was described as previous study. BI-44 was administrated by IV injection through tail vein, 5 times/7 days, with the doses indicated on the figure. Gefitinib and Afatinib were administrated orally, 5 times/7 days, with the dose of 20 mpk (mg/Kg).
as §1, with “In the first animal model, Mice” for “Mice”, “were started to receive” for “were given”, “on day” for “on days”
BI-44 was administrated starting 2 days after orthotopic lung tumor implantation according to the administration scheme shown in FIG. 4A, and the tumor formations were evaluated via non-invasive bioluminescent imaging on days 14 and 28.

BMI-1 = BMI-1 protein expression by western blot in H1975 cells; assay type: cell-based, human; settings: for BMI-1 protein expression: 10 μM, 6 h, western blot; for inhibition of BMI-1 expression, dose dependence: different concentrations, western blot (#44: 6 h)
Description: (§3) The abilities of compounds of the invention to inhibit BMI-1/MCl-1 expressions were assayed with cell cultures. BMI-1 and MCL-1 are overexpressed in many cancers, such as lung cancer cell line H1975. Therefore, cancer cells that overexpress BMI-1/MCL-1 provide a convenient platform for assaying BMI-1/MCL-1 inhibition.
(§4) After drug treatments, cells were washed twice with PBS, scraped, and resuspended in RIPA buffer containing protease inhibitors (20 mM Tris-HCl pH 7.5, 150 mM NaCl, 1 mM Na2EDTA, 1 mM EGTA, 1% NP-40, 1% sodium deoxycholate, 2.5 mM sodium pyrophosphate, 1 mM b-glycerophosphate, 1 mM Na3VO4, 1 μg/ml leupeptin). Cell lysate was sonicated for 5-10 min, and centrifuged at 14000 rpm for 20 minutes at 4° C. The supernatant was collected, determined for protein concentrations, and stored at −80° C. before further use.
(§5) BMI-1/MCL-1 expression levels may be assessed with western blot analysis. […] The denatured protein samples were then loaded in 10% Tris-Glycine SDS polyacrylamide gel for separating proteins. The power supply for the running condition was set at 80 V for running stacking gel and 100 V for separating gel, respectively. […] The power supply for the transfer condition was set at 300 mA, and the transfer was carried out on ice for 2.5 hours. The nitrocellulose membranes containing the denatured proteins were blocked with a solution containing 5% skim milk at room temperature for 1 hour.
After blocking, the membranes were washed with TBS containing 0.1% Tween-20 (TBST) for 5 minutes. […] After washing with TBST (5 min×3), the membranes were incubated with the secondary antibody (HRP-conjugated anti-mouse IgG, Jackson ImmunoReserch LABORATORIES INC., 1:5000) at room temperature for 1 hour. After washing with TBST (5 min×5), the membranes were incubated with chemiluminescence regent for 1 minute and imaged with a Bioluminiscent imaging system (Biospectrum-AC w/Bio Chemi Camera, UVP).

MCL-1 = MCL-1 protein expression by western blot in H1975 cells; assay type: cell-based, human; settings: for MCL-1 protein expression: 10 μM, 6 h, western blot; for inhibition of MCL-1 expression, dose dependence: different concentrations, western blot (#44: 6 h)
Description: as §3, §4, §5
In addition, the membranes were also probed with antibodies against MCL-1 and tubulin. Tubulin functions as an internal control to assess the relative loadings in different lanes on the gel. Myeloid cell leukemia 1 (MCL1) is a pro-survival protein overexpressed in many cancers.

H1975-Luc cells [2] = experiment: In vivo anti-tumor test, orthotopic H1975-Luc mouse tumor model (FIG. 3); parameters: species or system SCID mice; settings: 1 mpk IV tail vein, 5 times/7 days, 3 weeks
Excerpt: Mice were orthotopically implanted with H1975-luc cells (10^6 cells/mouse), and started to receive drug treatments for 3 weeks. The tumor growths were followed by non-invasive bioluminescent imaging, and quantified. […] Tarceva ([…]) was administrated orally (20 mpk, 5 times/7 days). N=5 to 7 for each group.
The derivatives showing potent anti-BMI-1/MCL-1 effects, such as compounds #43-45 (BI-43-BI-45), were selected for further in vivo anti-tumor test. The in vivo mouse tumor model was established as described below. • 1. SCID mice (70 mice, about […]) were quarantined for one week before lung cancer cells are implanted into their chest cavities. • 2. Before implanting the cancer cells into the mouse chest cavities, the mice were anesthetized with gas anesthesia. The mice were placed in a transparent acrylic box of 20 cm×10 cm×10 cm, which was connected with a flexible tubing to an anesthesia machine and an oxygen tank. Then, an appropriate amount of anesthesia (Isoflurane) was introduced into the anesthesia machine and the valve is open. […] One week after intra-thoracic implant of cancer cells, a luminescence reagent (D-luciferin) was injected into the abdominal cavities of the mice. […]
After establishment of the tumors in mice, the test compounds were administered at the indicated doses and the tumor sizes were monitored using bioluminescence. […]

H1975-luc cells [3] = experiment: Orthotopic H1975-Luc model, treatment starting 3 weeks after tumor implantation (FIG. 5); assay type: in vivo, mice; settings: for tumor inhibition rate: day 21
Excerpt: (§6) Mice were orthotopically implanted with H1975-luc cells (10^6 cells/mouse). On day 0 (defined as 3 weeks after tumor implantation), mice were imaged and started to receive drug treatments for 3 weeks (5 times/week). The tumor growths were followed by non-invasive imaging weekly.
as §2
as §6, with “In the second model, BI-44 was administrated starting 3 weeks after tumor implantation (FIG. 5A) when all the mice contained defined luciferase signals in lungs. Then, tumor growths were followed for 3 weeks (FIG. 5A). Mice” for “Mice”, “H1975-Luc” for “H1975-luc”

## CN(C)C/C=C/C(=O)Nc1cc2c(Nc3ccc(F)c(Cl)c3)ncnc2cc1O[C@H]1CCOC1 [Afatinib, reference compound]
H1975-luc cells [1]; Afatinib 20 mpk orally, day 28
  tumor inhibition rate as compared to control: around 80%

## O=C(Nc1cccc(Cl)c1)Nc1cccc(-c2cccc3cc[nH]c23)c1 [Compound 45]
BMI-1
  BMI-1 protein expression: significantly reduced
MCL-1
  MCL-1 protein expression: significantly reduced

## COc1cc(Br)c(Nc2nc(-c3c(C)nc4ncccn34)cs2)c(Br)c1 [Compound 43]
BMI-1
  BMI-1 protein expression: significantly reduced
MCL-1
  MCL-1 protein expression: significantly reduced

## CCc1ccc(C(=O)Nc2cccc(-c3cccc4cc[nH]c34)c2)cc1 [Compound 44, N-(3-(1H-indol-7-yl)phenyl)-4-ethylbenzamide]
BMI-1
  BMI-1 protein expression: significantly reduced
  inhibition of BMI-1 expression, dose dependence: inhibits the expressions of BMI-1 and MCL-1 in a dose-dependent manner
BMI-1; listed as #44
  inhibition of BMI-1 expression, dose dependence: effectively inhibited the expressions of BMI-1 and MCL-1 at sub-μM concentrations
MCL-1
  MCL-1 protein expression: significantly reduced
  inhibition of MCL-1 expression, dose dependence: inhibits the expressions of BMI-1 and MCL-1 in a dose-dependent manner
MCL-1; listed as #44
  inhibition of MCL-1 expression, dose dependence: effectively inhibited the expressions of BMI-1 and MCL-1 at sub-μM concentrations
H1975-Luc cells [2]
  anti-tumor growth effects (bioluminescence): most significant anti-tumor growth effects
H1975-luc cells [1]; day 14
  tumor-free rate: 62.5%
H1975-luc cells [1]; day 28
  tumor-free rate: 37.5%
H1975-luc cells [1]; BI-44 3 mpk IV, day 28
  tumor inhibition rate as compared to control: around 80%
H1975-luc cells [1]; BI-44 3 mpk IV, days 14 and 28
  bioluminescent intensities in mice lungs: significantly reduced bioluminescent intensities
H1975-luc cells [3]; 3 mpk IV
  tumor inhibition rate: around 90%
H1975-luc cells [3]; 9 mpk IV
  tumor inhibition rate: around 90%
H1975-luc cells [3]; IV 5 times/week for 3 weeks, 1, 3, 9 mpk
  tumor growth inhibition: significantly inhibited tumor growth in a dose-dependent manner
